tested on: microfilariae of Dirofilaria immitis; assay: Dirofilaria immitis, Microfilaria (DiMF) In vitro Assay; format: cell-based; conditions: 72 h, read-out: DiMF Minimum Effective Dose (MED), approximately 72 hours incubation, microfilariae assessed for survival or paralysis

Q: CC(C)C[C@H]1C(=O)O[C@H](Cc2ccc(CN3CCSc4ccccc43)cc2)C(=O)N(C)[C@@H](CC(C)C)C(=O)O[C@H](C)C(=O)N(C)[C@@H](CC(C)C)C(=O)O[C@H](Cc2ccccc2)C(=O)N(C)[C@@H](CC(C)C)C(=O)O[C@H](C)C(=O)N1C [Example 10-41, (3S,6R,9S,12R,15S,18R,21S,24R)-6-benzyl-18-(4-((2,3-dihydro-4H-benzo[b][1,4]thiazin-4-yl)methyl)benzyl)-3,9,15,21-tetraisobutyl-4,10,12,16,22,24-hexamethyl-1,7,13,19-tetraoxa-4,10,16,22-tetraazacyclotetracosan-2,5,8,11,14,17,20,23-octaone] was tested. Which minimal effective concentration did it give?
A: Its minimal effective concentration is 0.01 to 0.1 µM.

Q: CCOc1cc(C)n(Cc2ccc(C[C@H]3OC(=O)[C@H](CC(C)C)N(C)C(=O)[C@@H](C)OC(=O)[C@H](CC(C)C)N(C)C(=O)[C@@H](Cc4ccc(Cn5nc(OCC)cc5C)cc4)OC(=O)[C@H](CC(C)C)N(C)C(=O)[C@@H](C)OC(=O)[C@H](CC(C)C)N(C)C3=O)cc2)n1 [Example 1b-159, (3S,6R,9S,12R,15S,18R,21S,24R)-6,18-bis(4-((3-ethoxy-5-methyl-1H-pyrazol-1-yl)methyl)benzyl)-3,9,15,21-tetraisobutyl-4,10,12,16,22,24-hexamethyl-1,7,13,19-tetraoxa-4,10,16,22-tetraazacyclotetracosan-2,5,8,11,14,17,20,23-octaone] was tested. Which minimal effective concentration did it give?
A: Its minimal effective concentration is 0.01 to 0.1 µM.

Q: CC(C)C[C@H]1C(=O)O[C@H](Cc2ccc(Cn3cc(C4CCOCC4)cn3)cc2)C(=O)N(C)[C@@H](CC(C)C)C(=O)O[C@H](C)C(=O)N(C)[C@@H](CC(C)C)C(=O)O[C@H](Cc2ccc(Cn3cc(C4CCOCC4)cn3)cc2)C(=O)N(C)[C@@H](CC(C)C)C(=O)O[C@H](C)C(=O)N1C [Example 1b-116, (3S,6R,9S,12R,15S,18R,21S,24R)-3,9,15,21-tetraisobutyl-4,6,10,16,18,22-hexamethyl-12,24-bis(4-((4-(tetrahydro-2H-pyran-4-yl)-1H-pyrazol-1-yl)methyl)benzyl)-1,7,13,19-tetraoxa-4,10,16,22-tetraazacyclotetracosan-2,5,8,11,14,17,20,23-octaone] was tested. Which minimal effective concentration did it give?
A: The minimal effective concentration was 0.01 to 0.1 µM.

Q: Which minimal effective concentration does the source give for Cc1nn(Cc2ccc(C[C@H]3OC(=O)[C@H](CC(C)C)N(C)C(=O)[C@@H](C)OC(=O)[C@H](CC(C)C)N(C)C(=O)[C@@H](Cc4ccccc4)OC(=O)[C@H](CC(C)C)N(C)C(=O)[C@@H](C)OC(=O)[C@H](CC(C)C)N(C)C3=O)cc2)c(C)c1C#N [Example 2-78, 1-(4-(((2R,5S,8R,11S,14R,17S,20R,23S)-14-benzyl-5,11,17,23-tetraisobutyl-4,8,10,16,20,22-hexamethyl-3,6,9,12,15,18,21,24-octaoxo-1,7,13,19-tetraoxa-4,10,16,22-tetraazacyclotetracosan-2-yl)methyl)benzyl)-3,5-dimethyl-1H-pyrazole-4-carbonitrile] here?
A: The minimal effective concentration was 0.01 to 0.1 µM.

Q: How did the minimal effective concentration turn out when CC(C)C[C@H]1C(=O)O[C@H](Cc2ccc(Cn3cc(OC(F)F)cn3)cc2)C(=O)N(C)[C@@H](CC(C)C)C(=O)O[C@H](C)C(=O)N(C)[C@@H](CC(C)C)C(=O)O[C@H](Cc2ccc(Cn3cc(OC(F)F)cn3)cc2)C(=O)N(C)[C@@H](CC(C)C)C(=O)O[C@H](C)C(=O)N1C [Example 1b-140, (3S,6R,9S,12R,15S,18R,21S,24R)-6,18-bis(4-((4-(difluoromethoxy)-1H-pyrazol-1-yl)methyl)benzyl)-3,9,15,21-tetraisobutyl-4,10,12,16,22,24-hexamethyl-1,7,13,19-tetraoxa-4,10,16,22-tetraazacyclotetracosan-2,5,8,11,14,17,20,23-octaone] was run?
A: The minimal effective concentration was 0.01 to 0.1 µM.

Q: How did the minimal effective concentration turn out when Cc1nn(Cc2ccc(C[C@H]3OC(=O)[C@H](CC(C)C)N(C)C(=O)[C@@H](C)OC(=O)[C@H](CC(C)C)N(C)C(=O)[C@@H](Cc4ccccc4)OC(=O)[C@H](CC(C)C)N(C)C(=O)[C@@H](C)OC(=O)[C@H](CC(C)C)N(C)C3=O)cc2)c(C)c1C [Example 2-11, (3S,6R,9S,12R,15S,18R,21S,24R)-6-benzyl-3,9,15,21-tetraisobutyl-4,10,12,16,22,24-hexamethyl-18-(4-((3,4,5-trimethyl-1H-pyrazol-1-yl)methyl)benzyl)-1,7,13,19-tetraoxa-4,10,16,22-tetraazacyclotetracosan-2,5,8,11,14,17,20,23-octaone] was run?
A: The minimal effective concentration was 0.01 to 0.1 µM.

Q: For CCOc1cc(C2CC2)nn1Cc1ccc(C[C@H]2OC(=O)[C@H](CC(C)C)N(C)C(=O)[C@@H](C)OC(=O)[C@H](CC(C)C)N(C)C(=O)[C@@H](Cc3ccc(Cn4nc(C5CC5)cc4OCC)cc3)OC(=O)[C@H](CC(C)C)N(C)C(=O)[C@@H](C)OC(=O)[C@H](CC(C)C)N(C)C2=O)cc1 [Example 1b-170, (3S,6R,9S,12R,15S,18R,21S,24R)-6,18-bis(4-((3-cyclopropyl-5-ethoxy-1H-pyrazol-1-yl)methyl)benzyl)-3,9,15,21-tetraisobutyl-4,10,12,16,22,24-hexamethyl-1,7,13,19-tetraoxa-4,10,16,22-tetraazacyclotetracosan-2,5,8,11,14,17,20,23-octaone], which minimal effective concentration is on record?
A: Its minimal effective concentration is 0.01 to 0.1 µM.

Q: With CC(C)C[C@H]1C(=O)O[C@H](Cc2ccc(CN3CCC(F)(F)CC3)cc2)C(=O)N(C)[C@@H](CC(C)C)C(=O)O[C@H](C)C(=O)N(C)[C@@H](CC(C)C)C(=O)O[C@H](Cc2ccc(CN3CCC(F)(F)CC3)cc2)C(=O)N(C)[C@@H](CC(C)C)C(=O)O[C@H](C)C(=O)N1C [Example 9-4, (3S,6R,9S,12R,15S,18R,21S,24R)-6,18-bis(4-((4,4-difluoropiperidin-1-yl)methyl)benzyl)-3,9,15,21-tetraisobutyl-4,10,12,16,22,24-hexamethyl-1,7,13,19-tetraoxa-4,10,16,22-tetraazacyclotetracosan-2,5,8,11,14,17,20,23-octaone] as the compound, how does the minimal effective concentration read?
A: Its minimal effective concentration is 0.01 to 0.1 µM.

Q: Cc1c(CO)nn(Cc2ccc(C[C@H]3OC(=O)[C@H](CC(C)C)N(C)C(=O)[C@@H](C)OC(=O)[C@H](CC(C)C)N(C)C(=O)[C@@H](Cc4ccc(Cn5nc(CO)c(C)c5C(F)(F)F)cc4)OC(=O)[C@H](CC(C)C)N(C)C(=O)[C@@H](C)OC(=O)[C@H](CC(C)C)N(C)C3=O)cc2)c1C(F)(F)F [Example 1b-124, (3S,6R,9S,12R,15S,18R,21S,24R)-6,18-bis(4-((3-(hydroxymethyl)-4-methyl-5-(trifluoromethyl)-1H-pyrazol-1-yl)methyl)benzyl)-3,9,15,21-tetraisobutyl-4,10,12,16,22,24-hexamethyl-1,7,13,19-tetraoxa-4,10,16,22-tetraazacyclotetracosan-2,5,8,11,14,17,20,23-octaone] was tested. Which minimal effective concentration did it give?
A: The minimal effective concentration was 0.01 to 0.1 µM.

Q: For Cc1nccn1Cc1ccc(C[C@H]2OC(=O)[C@H](CC(C)C)N(C)C(=O)[C@@H](C)OC(=O)[C@H](CC(C)C)N(C)C(=O)[C@@H](Cc3ccc(Cn4ccnc4C)cc3)OC(=O)[C@H](CC(C)C)N(C)C(=O)[C@@H](C)OC(=O)[C@H](CC(C)C)N(C)C2=O)cc1 [Example 6-1, (3S,6R,9S,12R,15S,18R,21S,24R)-3,9,15,21-tetraisobutyl-4,6,10,16,18,22-hexamethyl-12,24-bis[[4-[(2-methylimidazol-1-yl)methyl]phenyl]methyl]-1,7,13,19-tetraoxa-4,10,16,22-tetrazacyclotetracosane-2,5,8,11,14,17,20,23-octaone], which minimal effective concentration is on record?
A: The minimal effective concentration was 0.001 to 0.01 µM.

Q: For CC(C)C[C@H]1C(=O)O[C@H](Cc2ccc(Cn3cc(-c4ccccc4)nn3)cc2)C(=O)N(C)[C@@H](CC(C)C)C(=O)O[C@H](C)C(=O)N(C)[C@@H](CC(C)C)C(=O)O[C@H](Cc2ccccc2)C(=O)N(C)[C@@H](CC(C)C)C(=O)O[C@H](C)C(=O)N1C [Example 9-33, (3S,6R,9S,12R,15S,18R,21S,24R)-6-benzyl-3,9,15,21-tetraisobutyl-4,10,12,16,22,24-hexamethyl-18-(4-((4-phenyl-1H-1,2,3-triazol-1-yl)methyl)benzyl)-1,7,13,19-tetraoxa-4,10,16,22-tetraazacyclotetracosan-2,5,8,11,14,17,20,23-octaone], which minimal effective concentration is on record?
A: Its minimal effective concentration is 0.01 to 0.1 µM.

Q: How did the minimal effective concentration turn out when CC(C)C[C@H]1C(=O)O[C@H](Cc2ccc(Cn3nc(C4CC4)c(N)c3C3CC3)cc2)C(=O)N(C)[C@@H](CC(C)C)C(=O)O[C@H](C)C(=O)N(C)[C@@H](CC(C)C)C(=O)O[C@H](Cc2ccccc2)C(=O)N(C)[C@@H](CC(C)C)C(=O)O[C@H](C)C(=O)N1C [Example 2-85, (3S,6R,9S,12R,15S,18R,21S,24R)-6-(4-((4-amino-3,5-dicyclopropyl-1H-pyrazol-1-yl)methyl)benzyl)-18-benzyl-3,9,15,21-tetraisobutyl-4,10,12,16,22,24-hexamethyl-1,7,13,19-tetraoxa-4,10,16,22-tetraazacyclotetracosan-2,5,8,11,14,17,20,23-octaone] was run?
A: Its minimal effective concentration is 0.01 to 0.1 µM.

Q: How did the minimal effective concentration turn out when CC(C)C#Cc1cnn(Cc2ccc(C[C@H]3OC(=O)[C@H](CC(C)C)N(C)C(=O)[C@@H](C)OC(=O)[C@H](CC(C)C)N(C)C(=O)[C@@H](Cc4ccccc4)OC(=O)[C@H](CC(C)C)N(C)C(=O)[C@@H](C)OC(=O)[C@H](CC(C)C)N(C)C3=O)cc2)c1 [Example 2-70, (3S,6R,9S,12R,15S,18R,21S,24R)-6-benzyl-3,9,15,21-tetraisobutyl-4,10,12,16,22,24-hexamethyl-18-(4-((4-(3-methylbut-1-yn-1-yl)-1H-pyrazol-1-yl)methyl)benzyl)-1,7,13,19-tetraoxa-4,10,16,22-tetraazacyclotetracosan-2,5,8,11,14,17,20,23-octaone] was run?
A: The minimal effective concentration was 0.01 to 0.1 µM.

Q: For CC(C)C[C@H]1C(=O)O[C@H](Cc2ccc(Cn3cc(-c4cnccn4)cn3)cc2)C(=O)N(C)[C@@H](CC(C)C)C(=O)O[C@H](C)C(=O)N(C)[C@@H](CC(C)C)C(=O)O[C@H](Cc2ccc(Cn3cc(-c4cnccn4)cn3)cc2)C(=O)N(C)[C@@H](CC(C)C)C(=O)O[C@H](C)C(=O)N1C [Example 1b-87, (3S,6R,9S,12R,15S,18R,21S,24R)-3,9,15,21-tetraisobutyl-4,6,10,16,18,22-hexamethyl-12,24-bis(4-((4-(pyrazin-2-yl)-1H-pyrazol-1-yl)methyl)benzyl)-1,7,13,19-tetraoxa-4,10,16,22-tetraazacyclotetracosan-2,5,8,11,14,17,20,23-octaone], which minimal effective concentration is on record?
A: Its minimal effective concentration is 0.01 to 0.1 µM.

— patent publication US11331369B2, “Endoparasitic depsipeptides” (Zoetis Services LLC, priority 2017, dated 2022)
